Measured values published in patent publication US6620803B2, “Cosmetic or dermatological use of 7-hydroxylated steroids” (Vitasterol SARL, priority 1997, dated 2003).

Columns and labels:
[1] = system: thymocytes of C57BL/6 mice (mouse T cells); assay: Cell apoptosis induced by glucocorticoids in cultured mouse thymocytes (flow cytometry, propidium iodide); type: cell-based, mouse (C57BL/6)
Procedure: The thymus of C57BL/6 mice aged 4 weeks is removed. Culturing of the thymocytes is carried out for 6 hours in RPMI 1640 medium and in the presence or in the absence of the steroid tested. Apoptosis (fragmentation of the DNA) is measured by flow cytometry after labeling with propidium iodide. The apoptotic phenomenon is checked by electrophoresis of the DNA, which is visualized by ethidium bromide according to the conventional technique (observation of ranges of 200 base pairs).

[2] = Viability of human keratinocytes in culture (MTT test); type: cell-based; conditions: human, primary human keratinocytes in monolayer culture
Procedure: (§1) Human keratinocyzes are obtained from parts removed by surgery and are cultured in a monolayer to preconfluence. 7α-Hydroxy-DHEA is administered to these cultures at various concentrations in ethanolic solution (10%), each concentration being tested eight times. Controls are carried out with ethanol alone (10%). After 24 hours, the viability of the keratinocytes is measured by testing with MTT (3-(4,5-dimethylthiazol-2-yl)-2,5-diphenyltetrazolium bromide) where the mitochondrial dehydrogenase succinate transforms the MTT into blue crystals of formazan which are soluble in DMSO (Mosmann, J. Immunol. Methods 65: 55-63, 1983). The cell viability is calculated according to the formula:
(§2) Any value greater than 100 indicates a product favoring cell viability.

human keratinocytes [3] = assay: as above; type: cell-based; conditions: concentrations tested 10^−4 M to 10^−8 M
Procedure: as §1, §2

human keratinocytes [4] = assay: Anti-free radical effect on UVA-irradiated suspension of human keratinocytes (lipid peroxides by chemiluminescence); type: cell-based; conditions: 10^−6 M, calculated on nonirradiated controls and reference of protection
Procedure: Keratinocytes originating from a healthy donor are cultured to the subconfluent stage in medium (KGM) which is specific for the proliferation of the keratinocytes. The suspensions obtained are divided in triplicate into 4 series of which 3 are irradiated for 30 min with a lamp emitting UVA in order to activate the production of free radicals. Among the three irradiated series, one contains the vitamins C+E (0.7%) and serves as a reference of protection, one contains 7α-hydroxy-DHEA at 10^−6M and the last serves as a control.
The free radicals produced generate lipid peroxides which are determined by chemiluminescence (Belghmi et al. J. Biolum. Chemilum. 2: 113-119, 1982). The efficacy of 7α-hydroxy-DHEA is calculated on the basis of nonirradiated controls and of the reference of protection.

[5] = steroid 10^−5 M together with Dexamethasone 10^−5 M, 6 hours, dexamethasone alone 73.5
[6] = steroid 10^−6 M together with Dexamethasone 10^−6 M, 6 hours, dexamethasone alone 72.7

C[C@]12CC[C@H](O)CC1=C[C@@H](O)[C@@H]1[C@@H]2CC[C@]2(C)C(=O)CC[C@@H]12 [7α-hydroxy-DHEA, 3β,7α-dihydroxy-5-androsten-17-one]
Apoptotic cells (%) [1, 5]: 48.6%
Apoptotic cells (%) [1, 6]: 58.8%
viability at 24 h ([2]; 5.10^−5 M, 24 hours, control 100): 111 ± 7%
viability at 24 h ([2]; 5.10^−6 M, 24 hours, control 100): 147 ± 9%
viability at 24 h ([2]; 5.10^−7 M, 24 hours, control 100): 139 ± 3%
viability at 24 h ([2]; 10^−4 M, 24 hours, control 100): 124 ± 10%
viability at 24 h ([2]; 10^−5 M, 24 hours, control 100): 119 ± 7%
viability at 24 h ([2]; 10^−6 M, 24 hours, control 100): 154 ± 6%
viability at 24 h ([2]; 10^−7 M, 24 hours, control 100): 147 ± 5%
viability at 24 h ([2]; 10^−8 M, 24 hours, control 100): 127 ± 3%
Cytotoxicity on keratinocytes (human keratinocytes [3]): no cytotoxicity was observed
Efficacy (human keratinocytes [4]): 90%

C[C@]12CC[C@H](O)C[C@@H]1C[C@@H](O)[C@@H]1[C@@H]2CC[C@]2(C)C(=O)CC[C@@H]12 [7α-hydroxy-ISOA, 3β,7α-dihydroxy-5α-androstan-17-one]
Apoptotic cells (%) [1, 5]: 46.3%
Apoptotic cells (%) [1, 6]: 72.0%

C[C@]12CC[C@H](O)CC1=CC[C@@H]1[C@@H]2CC[C@]2(C)C(=O)CC[C@@H]12 [DHEA, 3β-hydroxy-5-androstene-17-one, reference compound]
Apoptotic cells (%) [1, 5]: 51.4%
Apoptotic cells (%) [1, 6]: 39.0%
viability at 24 h ([2]; other comparative tests, concentration not given): 100 ± 5%

C[C@@H]1C[C@H]2[C@@H]3CCC4=CC(=O)C=C[C@]4(C)[C@@]3(F)[C@@H](O)C[C@]2(C)[C@@]1(O)C(=O)CO [Dexamethasone, reference compound]
Apoptotic cells (%) ([1]; Dexamethasone 10^−5 M alone, thymocytes cultured 6 hours, ethanol alone 41.5): 73.5%
Apoptotic cells (%) ([1]; Dexamethasone 10^−6 M alone, thymocytes cultured 6 hours, ethanol alone 41.5): 72.7%
